In patent US10947222B2, “Indole derivatives useful as inhibitors of diacylglyceride O-acyltransferase 2” (Merck Sharp & Dohme Corp., priority 2016, dated 2021) one finds IC50 data, which are given here for 21 molecules.

pIC50: −log10 of the molar value.

By pIC50 is commonly meant −log10 of the IC50, conventionally taken in molar units. Higher therefore signals a low IC50.

Chain of human DGAT2 (hDGAT2) (Q96PD7 whole entry): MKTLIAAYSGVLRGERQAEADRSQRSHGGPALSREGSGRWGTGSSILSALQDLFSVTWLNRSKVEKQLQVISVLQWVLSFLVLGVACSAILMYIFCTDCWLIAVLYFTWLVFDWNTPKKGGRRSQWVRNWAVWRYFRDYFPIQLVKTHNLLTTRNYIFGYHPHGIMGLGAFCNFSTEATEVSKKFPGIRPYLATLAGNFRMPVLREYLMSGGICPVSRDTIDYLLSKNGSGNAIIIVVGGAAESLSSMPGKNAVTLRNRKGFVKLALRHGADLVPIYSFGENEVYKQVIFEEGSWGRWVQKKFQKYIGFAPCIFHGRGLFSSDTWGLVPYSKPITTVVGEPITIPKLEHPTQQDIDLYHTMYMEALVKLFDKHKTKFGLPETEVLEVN

This test concerns the target human DGAT2 (hDGAT2) (Homo sapiens (Human), UniProt Q96PD7). The experiment in a line: DGAT2 enzymatic activity assay (triolein formation, LC/MS/MS). It counts as biochemical. To be noted: Sf-9 membrane prep expressing hDGAT2; 25 μM diolein, 10 μM oleoyl-CoA; triolein by LC/MS/MS. As to the method: Sf-9 insect cells were maintained in Grace's insect cell culture medium with 10% heated-inactivated fetal bovine serum, 1% Pluronic F-68 and 0.14 μg/ml Kanamycine sulfate in Erlenmeyer flasks at 28° C. in a shaker incubator. After infection with untagged baculovirus expressing human DGAT2 (hDGAT2) at multiplicity of infection (MOI) 0.1 for 48 hours, cells were harvested. Cell pellets were suspended in buffer containing 10 mM Tris-HCl (pH 7.5), 1 mM EDTA (pH 8.0), 250 mM sucrose and Complete Protease Inhibitor Cocktail (Roche Diagnostics Corp., Indianapolis, Ill.), and sonicated on ice. Membrane fractions were isolated by ultracentrifugation (100,000×g pellet), resuspended in the same buffer, and frozen (−80° C.) for later use. The protein concentration was determined with the BCA Protein Assay kit (Pierce Biotechnology Inc., Rockford, Ill.). Expression of protein levels was analyzed by immunoblotting with goat polyclonal DGAT2 antibody C-15 and donkey anti-goat IgG HRP (Santa Cruz Biotechnology, Inc., Santa Cruz, Calif.) followed by detection with ECL reagent (GE Healthcare, Piscataway, N.J.).
LC/MS/MS analyses were performed using Thermal Fisher's LX4-TSQ Vantage system. This system consists of an Agilent binary high-performance liquid chromatography (HPLC) pumps and a TSQ Vantage triple quadrupole MS/MS instrument. For each sample, 2 μL samples from the top organic layer of in-plate liquid-liquid extraction were injected onto a Thermo Betabasic C4 column (2.1 mm×20 mm, 5 μm particle size). The samples were then eluted using the following conditions; mobile phase: methanol/water with 0.1% ammonium format=92/8 (v/v), flow rate: 1 mL/min, temperature: 25 C. Data was acquired in positive mode using a heated electrospray ionization (HESI) interface. The operational parameters for the TSQ Vantage MS/MS instrument were a spray voltage of 3000 V, capillary temperature of 280° C., vaporizer temperature 400° C., shealth gas 60 arbitrary unit, Aux gas 40 arbitrary units, S-lens 113 and collision gas 0.16 Pascals. […] (SRM) chromatograms of triolein (Q1:902.9>Q3:602.3) and internal standard (Q1:902.9>Q3:602.3) were collected for 40 sec. The peak area was integrated by Xcalibur Quan software. The ratio between the triolein generated in the reaction and spiked in internal standard was used to generate percentage inhibition and IC50 values. Compound percentage inhibition was calculated by the following formula: Inhibition %/=1−[(compound response−low control)/(high control−low control)]×100%. Potent compounds were titrated and IC50 were calculated by 4 parameter sigmoidal curve fitting formula.
DGAT2 activity was determined by measuring the amount of enzymatic product triolein (1,2,3-Tri(cis-9-octadecenoyl)glycerol) using the membrane prep mentioned above. The assay was carried out in deep well 384 plates in a final volume of 40 μL at rt. The assay mixture contained the following: assay buffer (100 mM Tris.Cl, pH 7.0, 20 mM MgCl2, 5% ethanol), 25 μM of diolein, 10 μM of oleoyl-CoA and 10 ng/μL of DGAT2 membrane.
`O=C(NC1CCS(=O)(=O)C1)c1ccc2c(-c3cccc(C4CC4)c3)cn(-c3ncc(F)cn3)c2c1` (single isomer, unassigned; enantiomer a) [Example 17-A, 3-(3-cyclopropylphenyl)-N-(1,1-dioxidotetrahydrothiophen-3-yl)-1-(5-fluoropyrimidin-2-yl)-1H-indole-6-carboxamide (enantiomer A)] gave a pIC50 of 8.48. Consider `CC1(NC(=O)c2ccc3c(-c4cccc(OC(F)F)c4)cn(-c4ccc(F)cn4)c3c2)CCS(=O)(=O)C1` (single isomer, unassigned; enantiomer a) [Example 10-A, 3-(3-(difluoromethoxy)phenyl)-1-(5-fluoropyridin-2-yl)-N-(3-methyl-1,1-dioxidotetrahydrothiophen-3-yl)-1H-indole-6-carboxamide (enantiomer A)], for which the pIC50 is 9.03.

The molecule `CC1(NC(=O)c2ccc3c(-c4ccccc4Cl)c(C#N)n(-c4ccc(F)cc4)c3c2)CCS(=O)(=O)C1` (single isomer, unassigned; enantiomer b) [Example 9-B, 3-(2-chlorophenyl)-2-cyano-1-(4-fluorophenyl)-N-(3-methyl-1,1-dioxidotetrahydrothiophen-3-yl)-1H-indole-6-carboxamide (Enantiomer B)] showed a pIC50 of 6.63. Consider `COc1cccc(-c2cn(-c3ccc(F)cc3)c3cc(C(=O)NC4CCS(=O)(=O)C4)ccc23)c1` (racemic) [Example 33, N-(1,1-dioxidotetrahydrothiophen-3-yl)-1-(4-fluorophenyl)-3-(3-methoxyphenyl)-1H-indole-6-carboxamide (racemic)], for which the pIC50 was 8.40.

`Cn1cc(-c2cn(-c3ccc(F)cc3)c3cc(C(=O)NC4CCS(=O)(=O)C4)ccc23)cn1` (racemic) [Example 54, N-(1,1-dioxidotetrahydrothiophen-3-yl)-1-(4-fluorophenyl)-3-(1-methyl-1H-pyrazol-4-yl)-1H-indole-6-carboxamide (racemic)] had a pIC50 of 6.46. Molecule `CC1(NC(=O)c2ccc3c(-c4ccccc4Cl)cn(-c4ncc(F)cn4)c3c2)CCS(=O)(=O)C1` (single isomer, unassigned; enantiomer a) [Example 15-A, 3-(2-chlorophenyl)-1-(5-fluoropyrimidin-2-yl)-N-(3-methyl-1,1-dioxidotetrahydrothiophen-3-yl)-1H-indole-6-carboxamide (enantiomer A, fast)] had a pIC50 of 7.11. Molecule `O=C(NC1CCS(=O)(=O)C1)c1ccc2c(-c3cccc(C(F)(F)F)c3)cn(-c3ccc(F)cc3)c2c1` (racemic) [Example 30, N-(1,1-dioxidotetrahydrothiophen-3-yl)-1-(4-fluorophenyl)-3-[3-(trifluoromethyl)phenyl]-1H-indole-6-carboxamide (racemic)] showed a pIC50 of 7.74. Take `O=C(NC1CCS(=O)(=O)C1)c1ccc2c(-c3cccc(OC(F)(F)F)c3)cn(-c3ccc(F)cc3)c2c1` (racemic) [Example 58, N-(1,1-dioxidotetrahydrothiophen-3-yl)-1-(4-fluorophenyl)-3-[3-(trifluoromethoxy)phenyl]-1H-indole-6-carboxamide (racemic)]: the pIC50 is 7.85. `O=C(NC1CCS(=O)(=O)C1)c1ccc2c(-c3cccc(OC(F)F)c3)cn(-c3ccc(F)cc3)c2c1` (single isomer, unassigned; enantiomer a) [Example 27-A, 3-(3-(difluoromethoxy)phenyl)-N-(1,1-dioxidotetrahydrothiophen-3-yl)-1-(4-fluorophenyl)-1H-indole-6-carboxamide (enantiomer A)] gave a pIC50 of 9.28. For the molecule `O=C(N[C@H](CO)c1ccc(C(F)(F)F)nc1)c1ccc2c(-c3ccccc3Cl)cn(-c3ccc(F)cc3)c2c1` [Example 5, (S)-3-(2-chlorophenyl)-1-(4-fluorophenyl)-N-(2-hydroxy-1-(6-(trifluoromethyl)pyridin-3-yl)ethyl)-1H-indole-6-carboxamide], the pIC50 is 6.72. `CC1(NC(=O)c2ccc3c(-c4cncc(OC(F)F)c4)cn(-c4ccc(F)cc4)c3c2)CCS(=O)(=O)C1` (racemic) [Example 25, 3-(5-(difluoromethoxy)pyridin-3-yl)-1-(4-fluorophenyl)-N-(3-methyl-1,1-dioxidotetrahydrothiophen-3-yl)-1H-indole-6-carboxamide (racemic)] showed a pIC50 of 9.11.

`O=C(NC1CCS(=O)(=O)C1)c1ccc2c(-c3cccc(Cl)c3Cl)cn(-c3ccc(F)cc3)c2c1` (racemic) [Example 44, 3-(2,3-dichlorophenyl)-N-(1,1-dioxidotetrahydrothiophen-3-yl)-1-(4-fluorophenyl)-1H-indole-6-carboxamide (racemic)] had a pIC50 of 7.72.

As for `O=C(NC1CCS(=O)(=O)C1)c1ccc2c(-c3cccc(Cl)c3)cn(-c3ccc(F)cc3)c2c1` (racemic) [Example 31, 3-(3-chlorophenyl)-N-(1,1-dioxidotetrahydrothiophen-3-yl)-1-(4-fluorophenyl)-1H-indole-6-carboxamide (racemic)], the pIC50 is 7.55. Take `Cc1cc(C)nc(-c2cn(-c3ccc(F)cc3)c3cc(C(=O)NC4CCS(=O)(=O)C4)ccc23)c1` (racemic) [Example 20, 3-(4,6-dimethylpyridin-2-yl)-N-(1,1-dioxidotetrahydrothiophen-3-yl)-1-(4-fluorophenyl)-1H-indole-6-carboxamide (racemic)]: the pIC50 is 6.10.

Turning to `CC1(NC(=O)c2ccc3c(-c4ccccc4Cl)cn(-c4ccc(F)cc4)c3c2)CCS(=O)(=O)C1` (single isomer, unassigned; enantiomer b) [Example 1-B, 3-(2-chlorophenyl)-1-(4-fluorophenyl)-N-(3-methyl-1,1-dioxidotetrahydrothiophen-3-yl)-1H-indole-6-carboxamide (Enantiomer B, slow)], the pIC50 was 8.18.

As to `O=C(NC1CCS(=O)(=O)C1)c1ccc2c(-c3cccc(C4CC4)c3)cn(-c3ccc(F)cn3)c2c1` (single isomer, unassigned; enantiomer a) [Example 11-A, 3-(3-cyclopropylphenyl)-N-(1,1-dioxidotetrahydrothiophen-3-yl)-1-(5-fluoropyridin-2-yl)-1H-indole-6-carboxamide (enantiomer A)], the pIC50 was 8.68. On to `Cc1ccnc(-c2cn(-c3ccc(F)cc3)c3cc(C(=O)NC4(C)CCS(=O)(=O)C4)ccc23)c1` (racemic) [Example 24, 1-(4-fluorophenyl)-N-(3-methyl-1,1-dioxidotetrahydrothiophen-3-yl)-3-(4-methylpyridin-2-yl)-1H-indole-6-carboxamide (racemic)], for which the pIC50 is 6.24. As to `Cc1cccc(-c2cn(-c3ccc(F)cc3)c3cc(C(=O)NC4CCS(=O)(=O)C4)ccc23)c1` (racemic) [Example 34, N-(1,1-dioxidotetrahydrothiophen-3-yl)-1-(4-fluorophenyl)-3-(3-methylphenyl)-1H-indole-6-carboxamide (racemic)], the pIC50 was 7.89. The value for `O=C(NC1CCS(=O)(=O)C1)c1ccc2c(-c3cc(Cl)cc(Cl)c3)cn(-c3ccc(F)cc3)c2c1` (racemic) [Example 41, 3-(3,5-dichlorophenyl)-N-(1,1-dioxidotetrahydrothiophen-3-yl)-1-(4-fluorophenyl)-1H-indole-6-carboxamide (racemic)] was 7.06. In the case of `O=C(NC1CCS(=O)(=O)C1)c1ccc2c(-c3c(F)cccc3F)cn(-c3ccc(F)cc3)c2c1` (racemic) [Example 48, 3-(2,6-difluorophenyl)-N-(1,1-dioxidotetrahydrothiophen-3-yl)-1-(4-fluorophenyl)-1H-indole-6-carboxamide (racemic)] it was 7.28.

`O=C(NC1CCS(=O)(=O)C1)c1ccc2c(-c3cccc(F)c3)cn(-c3ccc(F)cc3)c2c1` (racemic) [Example 35, N-(1,1-dioxidotetrahydrothiophen-3-yl)-3-(3-fluorophenyl)-1-(4-fluorophenyl)-1H-indole-6-carboxamide (racemic)] showed a pIC50 of 7.00.
